This is an account of results in patent publication US7470518B2 (priority 2002, dated 2008).

For test [1], the system named is PC-12 cells. In words: Whole-cell patch clamp current response of PC-12 cells to 1 mM acetylcholine (re-sensitization and scanning experiments). It is filed as cell-based. Conditions: decrease of mean whole-cell current. The source says: (§1) The patch clamp electrode solution contained 100-mM KCl, 2-mM MgCl2, 1-mM CaCl2, 11-mM EGTA, and 10-mM HEPES; pH was adjusted to 7.2 with KOH.
(§2) In these applications, as discussed above, both the flow rate of the fluids exiting the microchannels and the scan rate of the patch clamped cell are important. […] The width of each channel is 100 μm, the thickness is 50 μm, and the interchannel spacing is 25 μm. The procedure used for fabricating the microchannels and for patch clamping are identical to that described in Example 2 (see above). The patch clamped cell used was a PC-12 cell, which was placed between 10 to 20 micrometers away from the outlets of the microchannels. Channels 1, 3, 5 and 7 were filled with PBS buffer, while channels 2, 4 and 6 were filled with acetylcholine. The flow rate of the fluid streams was 6.8 mm/s.

Test [2] deals with T1, GABAA receptors (UniProt P28472+P62813).
T1 construct: expressed in transfected cells; host or cells: WSS-1 cells
T1 sequence (P62813 28-455): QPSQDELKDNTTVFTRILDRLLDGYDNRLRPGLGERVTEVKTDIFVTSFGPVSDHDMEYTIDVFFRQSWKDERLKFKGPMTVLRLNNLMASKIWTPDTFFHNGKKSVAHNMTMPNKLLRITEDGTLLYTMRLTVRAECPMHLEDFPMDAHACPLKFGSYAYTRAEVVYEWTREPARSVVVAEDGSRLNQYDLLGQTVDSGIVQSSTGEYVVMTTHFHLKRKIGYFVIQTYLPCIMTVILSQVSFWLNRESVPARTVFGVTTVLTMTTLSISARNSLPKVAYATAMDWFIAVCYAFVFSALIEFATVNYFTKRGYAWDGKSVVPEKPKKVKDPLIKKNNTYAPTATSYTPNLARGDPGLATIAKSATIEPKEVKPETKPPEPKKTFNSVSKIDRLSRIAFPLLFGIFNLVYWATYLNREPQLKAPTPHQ
T1 sequence (P28472 26-473): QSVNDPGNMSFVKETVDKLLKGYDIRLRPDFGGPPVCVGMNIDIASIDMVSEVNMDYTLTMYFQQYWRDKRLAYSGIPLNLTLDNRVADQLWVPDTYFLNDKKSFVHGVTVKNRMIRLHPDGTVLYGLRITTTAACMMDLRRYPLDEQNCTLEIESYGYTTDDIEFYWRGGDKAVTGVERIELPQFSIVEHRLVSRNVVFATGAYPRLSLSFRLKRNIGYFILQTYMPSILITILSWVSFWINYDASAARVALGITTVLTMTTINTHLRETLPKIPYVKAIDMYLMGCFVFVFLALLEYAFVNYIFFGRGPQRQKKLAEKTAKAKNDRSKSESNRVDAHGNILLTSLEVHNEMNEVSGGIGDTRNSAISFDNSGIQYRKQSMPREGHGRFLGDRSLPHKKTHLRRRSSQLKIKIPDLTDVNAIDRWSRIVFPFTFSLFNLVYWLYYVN
T1 sequence (P18508 39-466 partner): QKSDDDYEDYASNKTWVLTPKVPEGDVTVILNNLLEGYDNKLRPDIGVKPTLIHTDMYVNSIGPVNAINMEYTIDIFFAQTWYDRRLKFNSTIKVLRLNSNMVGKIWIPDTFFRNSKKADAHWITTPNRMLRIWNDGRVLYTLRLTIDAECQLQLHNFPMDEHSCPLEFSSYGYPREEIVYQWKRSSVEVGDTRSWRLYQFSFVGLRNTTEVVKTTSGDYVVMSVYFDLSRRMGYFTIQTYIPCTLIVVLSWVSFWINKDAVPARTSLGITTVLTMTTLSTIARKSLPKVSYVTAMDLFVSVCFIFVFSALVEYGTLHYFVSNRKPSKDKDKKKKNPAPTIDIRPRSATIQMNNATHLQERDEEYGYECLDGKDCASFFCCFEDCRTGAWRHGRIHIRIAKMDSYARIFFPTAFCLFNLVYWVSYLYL
As to the kind of experiment: Whole-cell patch clamp antagonist dose-response, bicuculline loaded together with GABA, microfluidic scanning. The note with it: for IC50: with 100 μM GABA. It is filed as cell-based. The protocol:
Electrophysiology experiments were performed using a commercially available microfluidic device for patch-clamp (Dynaflow 16, Cellectricon AB, Göteborg Sweden). The device has 16 channels of dimensions 50×57 μm (w×h) separated by 22 μm thick walls at the point of exit into the open volume. The volume of the 16 sample reservoirs is 80 μl and the dimensions of the open volume are 30×35 mm. Prior to experiments the device was loaded with different solutions using a micropipette. A 2 mm thick polycarbonate lid was attached over the sample reservoirs using double adhesive tape (3M, Stockholm, Sweden) to create a closed system. The lid was connected to a syringe with PE tubing and a syringe pump (CMA/100, microinjection pump, Carnegie Medicine, Cambridge, UK) was used to compress the air enclosed by the lid to initiate a well defined pressure driven flow in the channels.
Adherent WSS-1 cells were cultivated in Petri dishes for 4-8 days in (DMEM/F12) medium supplemented with antibiotics and antimycotin (0.2%), fetal calf serum (10%), and L-glutamine. Before the experiments, cells were washed and detached in a HEPES-saline buffer (HBS) containing (in mM): 10 HEPES, 140 NaCl, 5 KCl, 1 CaCl2, 1 MgCl2, and 10 D-glucose (pH 7.4). All chemicals used in the cell cultures were from Sigma-Aldrich (Sigma-Aldrich Sweden AB, Stockholm, Sweden).
Patch clamp experiments were carried out in the whole-cell configuration (holding potential −60 mV, sampling frequency 5 kHz filter frequency 1 KHz). The cell bath solution (HBS) contained 10-mM HEPES, 140 -mM NaCl, 5-mM KCl, 1-mM CaCl2, 1-mM MgCl2, 10-mM D-glucose (pH 7.4). The patch clamp electrode solution contained 100-mM KCl, 2-mM MgCl2, 1-mM CaCl2, 11-mM EGTA, and 10-mM HEPES; pH was adjusted to 7.2 with KOH. The experiments were performed at room temperature (18-22° C.).
The competitive antagonist bicuculline was used at the concentrations of 0.01, 0.1, 1, 5, 10, 100 μM. […] As in the experiments with agonist, every second channel was filled with buffer solution for cleansing, and a resting time in buffer of at least three minutes was used before a return scan was made. Dose-response curves were obtained with texp of 100 ms and 3 s. […] FIGS. 34a and b show the results of a patch-clamp experiment. […] These sample channels were interdigitized with buffer channels in every other channel, and the exposure time were set to either 100 ms or 3 s.

The subject of test [3] is PC-12 cell.
Text: as §1, §2
The channel structure and experimental setup used in Example 3 can be used to carry out dose-response measurements, in which the concentrations of the ligands in each of the ligand streams differ by predetermined amounts. […] In this 7-channel structure, channels 1, 3, 5 and 7 were filled with PBS buffer, whereas channels 2, 4, and 6 were filled with 1 μM, 12 μM, and 200 μM nicotine, respectively. The flow rate used was 3.24 mm/s and the cell-scanning speed was 250 μm/s. The patch-clamped cell was placed between 10 to 20 μm away from the outlet of the microchannel.

As for `CC(=O)OCC[N+](C)(C)C` [acetylcholine], the “exposure time to the agonist after which de-sensitization of the current response is observed” value in test [1] is recorded as above 5 s.
As usually defined, the IC20 is the concentration at which the effect reaches the 20% level. In general, IC50 refers to the point on the concentration scale where inhibition reaches its midpoint. Turning to `CN1CCc2cc3c(cc2[C@H]1[C@@H]1OC(=O)c2c1ccc1c2OCO1)OCO3` [bicuculline], the IC20 in test [2] was around 1 µM. In addition, the IC50 in test [2] (IC50, ascending order, texp=3 s) stood at 8.46 ± 1.4 µM; in test [2] (IC50, ascending order, texp=100 ms), 5.17 ± 0.4 µM; in test [2] (IC50, descending order, texp=3 s) it was 1.84 ± 0.4 µM; in test [2] (IC50, descending order, texp=100 ms) it was 3.56 ± 0.9 µM.
In the case of `CN1CCCC1c1cccnc1` (centres unmarked) [nicotine], in test [3] (1 μM nicotine), the whole-cell current response result is reported as “barely discernible”. For the same compound, the whole-cell current peak result in test [3] (12 μM nicotine) is “detected with good signal-to-noise ratio”.
